Values belong to the compound of their own block, whether it stands above or below them.
Key:
[1] = target: T1, Phosphatidylinositol 4,5-bisphosphate 3-kinase catalytic subunit delta isoform (Homo sapiens, UniProt O00329); assay: Inhibition of PI3Kdelta (unknown origin)
T1 sequence (O00329 whole entry): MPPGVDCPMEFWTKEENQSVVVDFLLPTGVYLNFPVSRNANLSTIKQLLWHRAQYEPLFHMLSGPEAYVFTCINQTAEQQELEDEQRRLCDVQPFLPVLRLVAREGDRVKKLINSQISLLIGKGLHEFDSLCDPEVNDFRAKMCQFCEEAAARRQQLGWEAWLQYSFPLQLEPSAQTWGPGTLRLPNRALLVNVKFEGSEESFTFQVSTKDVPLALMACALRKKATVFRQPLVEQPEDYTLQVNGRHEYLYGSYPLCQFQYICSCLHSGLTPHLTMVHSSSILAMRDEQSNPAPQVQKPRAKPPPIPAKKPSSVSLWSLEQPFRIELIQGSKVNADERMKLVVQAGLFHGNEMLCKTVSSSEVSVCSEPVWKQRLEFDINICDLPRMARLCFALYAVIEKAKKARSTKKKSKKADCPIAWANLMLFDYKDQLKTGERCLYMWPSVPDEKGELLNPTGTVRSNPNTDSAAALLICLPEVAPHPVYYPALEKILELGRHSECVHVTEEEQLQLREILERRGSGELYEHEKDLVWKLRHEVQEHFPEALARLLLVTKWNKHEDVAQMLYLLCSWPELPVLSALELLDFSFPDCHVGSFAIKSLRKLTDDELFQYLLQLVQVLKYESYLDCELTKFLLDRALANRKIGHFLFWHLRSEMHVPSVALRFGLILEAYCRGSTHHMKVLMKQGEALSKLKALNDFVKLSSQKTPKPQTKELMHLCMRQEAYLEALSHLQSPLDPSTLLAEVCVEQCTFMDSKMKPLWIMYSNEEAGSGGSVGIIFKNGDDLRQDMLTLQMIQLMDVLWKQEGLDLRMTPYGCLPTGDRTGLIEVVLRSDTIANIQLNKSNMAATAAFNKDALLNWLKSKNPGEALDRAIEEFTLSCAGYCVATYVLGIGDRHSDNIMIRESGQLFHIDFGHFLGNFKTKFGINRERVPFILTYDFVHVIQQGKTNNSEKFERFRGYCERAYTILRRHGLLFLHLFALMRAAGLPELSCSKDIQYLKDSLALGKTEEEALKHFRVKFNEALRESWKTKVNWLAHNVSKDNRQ

[2] = target: T2, Phosphatidylinositol 4,5-bisphosphate 3-kinase catalytic subunit gamma isoform (Homo sapiens, UniProt P48736); assay: Reversible competitive inhibition of PI3K p110gamma (unknown origin)
T2 sequence (P48736 whole entry, canonical isoform): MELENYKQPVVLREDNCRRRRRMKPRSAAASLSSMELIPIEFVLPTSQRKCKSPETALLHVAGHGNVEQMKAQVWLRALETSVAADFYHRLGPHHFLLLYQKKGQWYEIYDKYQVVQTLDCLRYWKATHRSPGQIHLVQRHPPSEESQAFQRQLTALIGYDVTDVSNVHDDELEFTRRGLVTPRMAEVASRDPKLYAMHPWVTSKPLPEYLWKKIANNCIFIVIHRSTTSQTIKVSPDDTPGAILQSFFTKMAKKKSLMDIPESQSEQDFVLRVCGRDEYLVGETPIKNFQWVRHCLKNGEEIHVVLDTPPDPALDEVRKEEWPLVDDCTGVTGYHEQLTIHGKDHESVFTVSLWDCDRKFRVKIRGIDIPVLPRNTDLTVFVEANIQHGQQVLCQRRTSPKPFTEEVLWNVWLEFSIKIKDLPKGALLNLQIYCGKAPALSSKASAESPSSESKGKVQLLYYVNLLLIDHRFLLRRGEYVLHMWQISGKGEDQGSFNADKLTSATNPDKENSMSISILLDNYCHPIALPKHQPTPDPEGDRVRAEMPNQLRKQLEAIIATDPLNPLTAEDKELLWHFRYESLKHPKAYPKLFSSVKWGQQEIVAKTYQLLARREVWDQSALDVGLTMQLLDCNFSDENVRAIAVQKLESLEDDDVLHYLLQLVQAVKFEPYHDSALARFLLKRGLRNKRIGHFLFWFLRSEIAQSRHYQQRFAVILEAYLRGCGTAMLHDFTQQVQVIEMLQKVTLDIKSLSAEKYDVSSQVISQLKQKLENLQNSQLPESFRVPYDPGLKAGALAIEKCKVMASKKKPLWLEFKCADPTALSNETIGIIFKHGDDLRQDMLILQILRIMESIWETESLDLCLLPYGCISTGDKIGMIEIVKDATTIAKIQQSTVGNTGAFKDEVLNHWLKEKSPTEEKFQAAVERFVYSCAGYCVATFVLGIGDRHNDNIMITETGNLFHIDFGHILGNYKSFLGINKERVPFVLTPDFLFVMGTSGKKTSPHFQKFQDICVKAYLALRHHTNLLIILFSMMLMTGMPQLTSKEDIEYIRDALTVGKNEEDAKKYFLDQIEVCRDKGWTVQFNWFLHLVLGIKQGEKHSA

[3] = target: T3, Phosphatidylinositol 4,5-bisphosphate 3-kinase catalytic subunit beta isoform (Homo sapiens, UniProt P42338)
T3 sequence (P42338 whole entry, canonical isoform): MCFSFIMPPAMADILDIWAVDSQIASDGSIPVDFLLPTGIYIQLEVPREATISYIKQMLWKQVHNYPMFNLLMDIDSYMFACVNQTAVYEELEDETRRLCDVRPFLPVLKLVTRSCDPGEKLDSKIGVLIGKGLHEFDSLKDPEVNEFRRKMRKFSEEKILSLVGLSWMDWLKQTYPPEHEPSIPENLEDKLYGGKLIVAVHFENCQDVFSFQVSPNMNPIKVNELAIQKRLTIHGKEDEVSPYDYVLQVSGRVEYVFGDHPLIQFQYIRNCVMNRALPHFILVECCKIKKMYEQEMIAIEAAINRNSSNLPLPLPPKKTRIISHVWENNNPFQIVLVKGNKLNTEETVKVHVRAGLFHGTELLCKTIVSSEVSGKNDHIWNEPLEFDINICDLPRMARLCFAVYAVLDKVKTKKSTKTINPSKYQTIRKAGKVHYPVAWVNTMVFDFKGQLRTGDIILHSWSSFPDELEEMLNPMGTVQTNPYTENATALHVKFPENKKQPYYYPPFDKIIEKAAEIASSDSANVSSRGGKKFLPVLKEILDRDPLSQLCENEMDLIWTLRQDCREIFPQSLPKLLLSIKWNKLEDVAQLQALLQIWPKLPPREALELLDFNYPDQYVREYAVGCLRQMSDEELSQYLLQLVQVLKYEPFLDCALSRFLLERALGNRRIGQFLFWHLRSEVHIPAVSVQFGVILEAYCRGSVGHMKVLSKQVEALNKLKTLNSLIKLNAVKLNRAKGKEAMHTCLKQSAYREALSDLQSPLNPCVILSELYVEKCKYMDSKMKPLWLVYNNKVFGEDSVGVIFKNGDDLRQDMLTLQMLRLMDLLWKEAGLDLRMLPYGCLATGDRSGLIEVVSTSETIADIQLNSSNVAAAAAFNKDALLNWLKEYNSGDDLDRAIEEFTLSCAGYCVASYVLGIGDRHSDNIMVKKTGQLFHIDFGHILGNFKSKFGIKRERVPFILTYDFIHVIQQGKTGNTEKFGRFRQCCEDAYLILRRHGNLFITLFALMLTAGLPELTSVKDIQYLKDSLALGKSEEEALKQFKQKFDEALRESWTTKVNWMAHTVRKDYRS

[4] = target: Phosphatidylinositol 4,5-bisphosphate 3-kinase catalytic subunit alpha isoform (Homo sapiens, UniProt P42336); assay: Inhibition of PI3K p110alpha (unknown origin)
Chain of Phosphatidylinositol 4,5-bisphosphate 3-kinase catalytic subunit alpha isoform (P42336 whole entry, canonical isoform): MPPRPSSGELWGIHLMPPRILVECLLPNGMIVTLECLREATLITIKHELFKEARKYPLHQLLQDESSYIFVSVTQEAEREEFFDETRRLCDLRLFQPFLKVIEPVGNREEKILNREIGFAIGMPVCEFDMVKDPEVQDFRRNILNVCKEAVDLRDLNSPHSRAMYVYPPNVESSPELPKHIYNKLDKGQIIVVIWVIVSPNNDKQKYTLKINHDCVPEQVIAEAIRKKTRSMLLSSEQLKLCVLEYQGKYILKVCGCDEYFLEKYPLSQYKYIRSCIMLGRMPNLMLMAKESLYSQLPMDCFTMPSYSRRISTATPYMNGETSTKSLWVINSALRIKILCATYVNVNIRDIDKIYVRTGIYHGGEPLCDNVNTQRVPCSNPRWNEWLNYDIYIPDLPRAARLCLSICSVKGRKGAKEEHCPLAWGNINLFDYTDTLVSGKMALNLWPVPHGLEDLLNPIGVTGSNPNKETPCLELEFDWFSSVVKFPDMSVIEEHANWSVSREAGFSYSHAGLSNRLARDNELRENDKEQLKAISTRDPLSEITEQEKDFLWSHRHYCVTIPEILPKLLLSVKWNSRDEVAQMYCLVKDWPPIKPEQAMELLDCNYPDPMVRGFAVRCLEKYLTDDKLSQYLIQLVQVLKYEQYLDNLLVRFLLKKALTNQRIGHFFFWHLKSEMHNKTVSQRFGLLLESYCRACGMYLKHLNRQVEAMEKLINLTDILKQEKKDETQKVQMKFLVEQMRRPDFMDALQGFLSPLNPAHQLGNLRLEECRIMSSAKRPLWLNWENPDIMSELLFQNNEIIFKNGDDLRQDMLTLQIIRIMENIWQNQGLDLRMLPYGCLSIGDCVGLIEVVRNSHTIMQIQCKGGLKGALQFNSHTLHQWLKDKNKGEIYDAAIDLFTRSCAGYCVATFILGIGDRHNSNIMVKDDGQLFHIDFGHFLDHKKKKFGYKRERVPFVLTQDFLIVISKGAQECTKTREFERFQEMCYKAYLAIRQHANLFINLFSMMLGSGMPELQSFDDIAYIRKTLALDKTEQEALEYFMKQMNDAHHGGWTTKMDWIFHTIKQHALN

[5] = target: T2, Phosphatidylinositol 4,5-bisphosphate 3-kinase catalytic subunit gamma isoform; assay: Inhibition of PI3K p110gamma (unknown origin)
[6] = target: Serine/threonine-protein kinase mTOR (Homo sapiens, UniProt P42345)
[7] = target: T1, Phosphatidylinositol 4,5-bisphosphate 3-kinase catalytic subunit delta isoform; assay: Inhibition of PI3K p110delta (unknown origin)
[8] = target: T3, Phosphatidylinositol 4,5-bisphosphate 3-kinase catalytic subunit beta isoform; assay: Inhibition of PI3K p110beta (unknown origin)

SMILES: C[C@H](Nc1ncnc2[nH]cnc12)c1nc2ccc(F)cc2c(=O)n1-c1ccccc1 [ACALISIB]
IC50 [1]: 12.7 nM

IC50 [2]: 383 nM
IC50 [3]: 36 nM
SMILES: COc1ccc(Cl)c(Nc2nc3ccccc3nc2NS(=O)(=O)c2cccc(NC(=O)C(C)(C)N)c2)c1 [PILARALISIB]

SMILES: CCn1c(=O)c(-c2cc[nH]n2)cc2c(C)nc(N)nc21 [VOXTALISIB]
IC50 [4]: 39 nM
IC50 [5]: 9 nM
IC50 [6]: 157 nM
IC50 [7]: 43 nM
IC50 [8]: 113 nM
